The logP is a log measure of how a compound divides between an organic and an aqueous phase. A low value points to lower lipophilicity.

Experimental findings from the SangsterLogP compilation are described below.

The series in a line: method code SF-AS, from DOI: 10.1002/jps.2600800814, PMID: 1791539.

In the case of `CCOc1cncc(OC)n1`, the logP worked out at 1.98.
`CCCCc1nc(C#N)c(C#N)nc1C` showed a logP of 2.3.
On to `CCOC(=O)c1cncc(C)n1`, for which the logP came to 0.51.
Regarding `Cc1cnc(Cl)cn1`, the log partition coefficient (logP) was 1.08.
With `COc1cncc(OC)n1` the figure was 1.58; with `COC(=O)c1cncc(Cl)n1`, 0.47.
As for `Cc1nc(C)c(C)nc1C`, the log partition coefficient (logP) stood at 1.28.
The figure for `Cc1cncc(C)n1` is 0.54.
With `COC(=O)c1nccnc1C(=O)OC` the figure was -0.02; with `CCOc1cnc(Cl)cn1`, 1.99; with `Cc1cncc(C(N)=O)n1`, -0.13.
Consider `CCCCc1nc(C#N)c(C#N)nc1Cl`, for which the logP was 2.89.
As for `Cc1cncc(C#N)n1`, the lipophilicity (logP) came out at 0.44.
For `COc1cncc(NC(C)=O)n1`, the logP came to 0.82.
Take `CCCOc1cncc(Cl)n1`: the logP came to 2.71.
With `COc1cnc(N(C)C)cn1` the figure was 1.65; with `CCOC(=O)c1cnc(C)cn1`, 0.61.
Regarding `CCOC(=O)c1cncc(N(C)C)n1`, the lipophilicity (logP) came out at 1.24.
In turn, `Cc1cnc(C#N)cn1` came in with a logP of 0.26.
The molecule `COc1cncc(C)n1` returned a logP of 1.29.
`Cc1nccnc1C` showed a logP of 0.54.
`CC(=O)Nc1cncc(Cl)n1`: the lipophilicity (logP) came to 1.1.
The figure for `CC(=O)Nc1cnc(Cl)cn1` is 0.56.
Consider `Nc1cncc(N)n1`, for which the lipophilicity (logP) was -0.45.
In the case of `Clc1cnc(Cl)cn1`, the lipophilicity (logP) was determined as 1.58.
`Cc1nc(C#N)c(C#N)nc1Cl`: the logP was determined as 1.29.
Molecule `CCOC(=O)c1nccnc1C(=O)OCC` had a log partition coefficient (logP) of 0.65.
As for `COc1cncc(C(N)=O)n1`, the lipophilicity (logP) stood at 0.13.
`CN(C)c1cncc(Cl)n1` displayed a lipophilicity (logP) of 1.95.
Molecule `CCc1ncc(C)nc1CC` showed a log partition coefficient (logP) of 1.95.
In turn, `COc1cncc(Cl)n1` had a logP of 1.65.
Molecule `CCc1nccnc1CC` showed a logP of 1.51.
Consider `Fc1cncc(F)n1`, for which the logP amounted to 0.74.
In the case of `Cc1nccnc1OC(C)C`, the lipophilicity (logP) was 2.24.
As for `Cc1cnc(C(N)=O)cn1`, the logP was -0.25.
`CCOc1cncc(C(N)=O)n1` registered a logP of 0.61.
As to `CN(C)c1cncc(C(N)=O)n1`, the log partition coefficient (logP) was found to be 0.38.
`COC(=O)c1cncc(C)n1` displayed a log partition coefficient (logP) of 0.1.
The figure for `COC(=O)c1cncc(N(C)C)n1` is 0.9.
Regarding `CCCCc1nccnc1C`, the lipophilicity (logP) stood at 2.1.
Regarding `COc1cnc(N)cn1`, the logP stood at 0.63.
The figure for `Cc1cncc(N(C)C)n1` is 1.57.
`Cc1cnc(C)c(C)n1` showed a lipophilicity (logP) of 0.95.
For the molecule `CCc1nccnc1C`, the lipophilicity (logP) was 1.07.
`COc1nccnc1C` gave a lipophilicity (logP) of 1.24.
The figure for `CCc1nccnc1OC` is 1.8; for `Nc1cnc(Cl)cn1` it is 0.67.
As for `Cc1cncc(N)n1`, the log partition coefficient (logP) was 0.35.
As for `NC(=O)c1cncc(Cl)n1`, the log partition coefficient (logP) stood at 0.28.
Consider `COC(=O)c1cnc(C)cn1`, for which the logP was 0.17.
With `CCOc1cncc(OCC)n1` the figure was 2.55.
Turning to `Clc1cncc(Cl)n1`, the logP amounted to 1.53.
With `CCCc1nccnc1C` the figure was 1.57; with `COc1cnc(OC)cn1`, 1.14; with `Cc1cnc(C)c(Cl)n1`, 1.5.
Take `COc1cncc(C#N)n1`: the logP was found to be 0.95.
Regarding `Nc1cncc(Cl)n1`, the log partition coefficient (logP) is 0.95.
With `CSc1nccnc1C` the figure was 1.81.
With `N#Cc1nccnc1C#N` the figure was 0.38; with `N#Cc1ncc(Cl)nc1C#N`, 0.95.
The molecule `CCOc1cncc(Cl)n1` gave a logP of 2.22.
The figure for `Fc1cncc(Cl)n1` is 1.15; for `COC(=O)c1cncc(OC)n1` it is 0.69.
`CN(C)c1cncc(C#N)n1` gave a log partition coefficient (logP) of 1.12.
With `COc1cncc(N(C)C)n1`, the logP came to 1.99.
Molecule `N#Cc1cncc(Cl)n1` returned a lipophilicity (logP) of 0.79.
For `CCc1nc(C#N)c(C#N)nc1Cl`, the logP turned out to be 1.79.
The figure for `COc1cncc(N)n1` is 0.73.
For the molecule `CN(C)c1cnc(Cl)cn1`, the logP is 1.7.
In the case of `Cc1cncc(Cl)n1`, the log partition coefficient (logP) turned out to be 1.03.
In turn, `CCOc1nccnc1C` returned a logP of 1.82.
Regarding `COc1cnc(Cl)cn1`, the logP was 1.52.
As to `CC(=O)Nc1cncc(C)n1`, the logP was 0.38.
Consider `CCOC(=O)c1cncc(OC)n1`, for which the lipophilicity (logP) is 1.2.
